Earlier results as cited in patent publication US20030012825A1, “Metallized molecule therapies” (priority 2000, published 2003).

Assays:
[1] = in vivo
[2] = test system: flow-mediated vasodilation; settings: in vivo
Metrazol-induced seizure = settings: subcutaneously
[3] = test system: Maximal Electroshock-induced seizure; settings: subcutaneously
[4] = in vivo; remark: listed apart in the source

Structure (SMILES): COC1=C(OC)C(=O)C(C/C=C(\C)CC/C=C(\C)CC/C=C(\C)CC/C=C(\C)CC/C=C(\C)CC/C=C(\C)CC/C=C(\C)CC/C=C(\C)CC/C=C(\C)CCC=C(C)C)=C(C)C1=O [Coenzyme Q10]
- EEG brain activity [1]: lowering of EEG

Structure (SMILES): [Cl][Cu][Cl] [copper chloride]
- effect on flow-mediated vasodilation [2]: improve flow-mediated vasodilation

Structure (SMILES): [Cu+] [copper ions]
- effect on intracellular HIV replication (HIV): inhibit intracellular HIV replication

Structure (SMILES): O=C(O)c1ccccc1[O-].O=C(O)c1ccccc1[O-].[Cu+2] [Cu(II) (salicylate) 2]
- dose at which anticonvulsant activity is initiated, preventing the Metrazol-induced seizure (Metrazol-induced seizure): 100 milligrams per kilogram of bodyweight
- dose at which anticonvulsant activity is initiated, preventing the Maximal Electroshock-induced seizure [3]: 600 milligrams per kilogram of bodyweight

Structure (SMILES): N[C@@H](Cc1ccc(O)cc1)C(=O)O [tyrosine]
- ability to pass the blood-brain barrier [4]: unique ability of passing the blood-brain barrier
